Assay results from ChEMBL document CHEMBL3430912, “GSK Tres Cantos Anti-Kinetoplastid Screening (TCAKS) Data”.

Tests used:
Trypanosoma cruzi [1] = experiment: (§1) GSK_TCAKS: pIC50 H2C9 Imaging: H9c2 Host Cardiomyocytes. […] Cells were then washed once with PBS before infection. T. cruzi trypomastigotes, collected at days 5 to 8 after infection from LLC-MK2 parasite infected cultures, were allowed to swim out for 4h at 37C from a centrifuged pellet (2,500 rpm/10 min/room temperature). Trypomastigotes were then collected and counted in a CASY Cell Counter. Trypomastigotes, in supplemented DMEM, were added to H9c2 cultures in a multiplicity of infection of 1 and incubated for 18 h. Cells were washed once with PBS before incubation of the infected H9c2 monolayer with trypsin (Life-Technologies) to detach cells from the flask. Cells were counted in a CASY Cell Counter using a 150 um capillary and their density set at 5 * 10^4 cells per mL in supplemented assay DMEM. Infected H9c2 were dispensed into 384-well poly-lysine coated assay plates at 50uL per well using a Multidrop Combi dispenser. After seeding them, the plates were incubated at 37C, 5% CO2 for 72h. Cultures were then fixed and stained by addition of 50 uL of a solution containing 8% formaldehyde and 4 uM DRAQ5 DNA dye (BioStatus, UK) per well. […] Five images were collected per well for reliable statistical analysis. Automated image analysis was performed with a script developed on Acapella High Content Imaging and Analysis Software (PerkinElmer). Output: Number of H9c2 Host Cardiomyocytes nuclei to determine drug-related cytotoxicity.; assay type: functional, organism-based, Rattus norvegicus; details: H9c2, 4 h
Trypanosoma cruzi [2] = experiment: as §1, with “Trypanosoma cruzi” for “H2C9”, “Infected Cells.” for “H9c2 Host Cardiomyocytes.”, “percentage” for “Number”, “infected cells per well as a second infection marker.” for “H9c2 Host Cardiomyocytes nuclei to determine drug-related cytotoxicity.”; assay type: functional, organism-based, Rattus norvegicus; details: H9c2, 4 h
Leishmania donovani [3] = experiment: (§2) GSK_TCAKS: pIC50 Leishmania donovani Imaging: Amastigotes/Macrophages. Assay plates (384-well) were prepared by adding 250nL of compound to each well. For single shot assay, the final compound concentration was 5 uM. […] Automated image analysis was performed with a script developed on Acapella High Content Imaging and Analysis Software (PerkinElmer). Output: Average number of amastigotes per macrophage cell were reported for each well.; assay type: functional, organism-based, Homo sapiens; details: THP-1
Leishmania donovani [4] = experiment: as §2, with “THP-1 Host Macrophages.” for “Amastigotes/Macrophages.”, “THP-1” for “Average number of amastigotes per macrophage”, “cell count” for “cell”; assay type: functional, organism-based, Homo sapiens
Leishmania donovani [5] = experiment: GSK_TCAKS: pIC50 Leishmania donovani viability assay using fluorescence intensity. Assay plates (1536-well) were prepared by adding 30nL per well of compound. For single shot assay, the final compound concentration was 5uM. […] Briefly, eGFP LdBOB axenic amastigotes were harvested, fixed and counted in a CASY cell counter (Roche-Applied Science). A final concentration of 1.5 * 10^5 cells per well were prepared in amastigote media containing 500 U/mL penicillin/streptomycin (Invitrogen) and 6uL was dispensed to each experimental well using a Multidrop Combi dispenser (Thermo Scientific). 6uL of assay media was dispensed to control columns used as reference for 100% compound response. Following incubation for 72 h at 37C, 5% CO2, 2 uL of resazurin was added to each well at a final concentration of 0.5 mM in phosphate buffered saline (PBS) with IGEPAL (Sigma-Aldrich), 0.05% (v/v).; assay type: functional, organism-based
Leishmania donovani [6] = experiment: as §2, with “Infected Macrophages.” for “Amastigotes/Macrophages.”, “Percent” for “Average number”, “infected” for “amastigotes per”, “cells” for “cell”; assay type: functional, organism-based, Homo sapiens; details: THP-1
Trypanosoma cruzi [7] = experiment: GSK_TCAKS: pIC50 Trypanosoma cruzi viability assay using beta-GAL activity. This assay was run at single shot at 5uM compound concentration per well. The biological reagents consisted of NIH-3T3 host cells and trypomastigotes parasitic cells; both cell types were set to a 3.3 * 10^5 cells/mL dilution in assay DMEM by means of a CASY cell counter device using a 60um capillary. 6 uL of the mixture were dispensed per well (about 1 * 10^3 host-cells and 1 * 10^3 parasites) with a Multidrop Combi dispenser. […] In all wells, the percentage of DMSO never exceeded 0.5%. Plates incubated for four days at 37C, 5% CO2. The substrate used for the assay fluorescence intensity (FLINT) readout was resorufin-beta-D-galactopiranoside (Sigma-Aldrich) at 5uM per well. It was diluted in PBS supplemented with the soft detergent Igepal (Fluka).; assay type: functional, organism-based, Mus musculus; details: Tulahuen, NIH3T3
[8] = biological target: Sterol 14-alpha demethylase (Trypanosoma cruzi (strain CL Brener), UniProt Q7Z1V1); experiment: GSK_TCAKS: pIC50 CYP51 from Trypanosoma cruzi.; assay type: functional
[9] = tested on: Trypanosoma brucei brucei; experiment: GSK_TCAKS: pIC50 Trypanosoma brucei viability assay using fluorescence intensity. Assay plates (1536-well) were prepared by dispensing 25nL of compound solution per well using an Echo acoustic dispenser (Labcyte).; assay type: functional, organism-based; details: Lister 427, 2 h
[10] = GSK_TCAKS: pIC50 HepG2 human cell line viability assay using luminiscence. […] Seeding density was checked to ensure that new mono-layers were not more than 50% confluent at the time of harvesting. Cell suspension was added to 500 mL of the same medium at a final density of 1.2 * 10^5 cells/mL. This cell suspension was dispensed (25 uL, 3000 cells per well) into 384-well clear-bottom plates using a Multidrop Combi dispenser. Prior to addition of the cell suspension, the screening compounds (250 nL) were pre-dispensed into the plates with an Echo liquid handler. Plates were incubated for 48 h at 37C, 5% CO2. After incubation, plates equilibrated at room temperature for 30 min before proceeding to develop the luminescent signal. The signal developer, CellTiter-Glo Reagent, was allowed to equilibrate at room temperature for 30 min and added to the plates (25uL per well) using a Multidrop Combi dispenser. Plates were left for 10 min at room temperature for stabilization and then read using a ViewLux.; assay type: toxicity, cell-based
[11] = tested on: Trypanosoma brucei brucei; experiment: GSK_TCAKS: pIC50 Trypanosoma brucei viability assay using luminiscence. Assay plates (1536-well) were prepared. T. brucei cultures were harvested and counted in a CASY cell counter. A parasite suspension was prepared at a final concentration of 5 * 10^4 cells/mL in complete HMI9 medium and 6uL was dispensed to all wells containing compounds using a Multidrop Combi dispenser. 6uL of HMI9 media with 0.4% DMSO were dispensed to control columns. Plates were incubated for 24 h at 37C, 5% CO2 then tempered for 10 min at room temperature. ATP content was quantified by adding 4 uL of CellTiter-Glo Reagent (Promega) according to the manufacturer's instructions. Luminescence was measured using a ViewLux.; assay type: functional, organism-based; details: Lister 427, CASY
Trypanosoma cruzi [12] = experiment: as §1, with “Trypanosoma cruzi” for “H2C9”, “Amastigotes/Cell.” for “H9c2 Host Cardiomyocytes.”, “number” for “Number”, “amastigotes per cell as infection level measurement.” for “H9c2 Host Cardiomyocytes nuclei to determine drug-related cytotoxicity.”; assay type: functional, organism-based, Rattus norvegicus; details: H9c2, 4 h

Sequence of Sterol 14-alpha demethylase (Q7Z1V1 whole entry): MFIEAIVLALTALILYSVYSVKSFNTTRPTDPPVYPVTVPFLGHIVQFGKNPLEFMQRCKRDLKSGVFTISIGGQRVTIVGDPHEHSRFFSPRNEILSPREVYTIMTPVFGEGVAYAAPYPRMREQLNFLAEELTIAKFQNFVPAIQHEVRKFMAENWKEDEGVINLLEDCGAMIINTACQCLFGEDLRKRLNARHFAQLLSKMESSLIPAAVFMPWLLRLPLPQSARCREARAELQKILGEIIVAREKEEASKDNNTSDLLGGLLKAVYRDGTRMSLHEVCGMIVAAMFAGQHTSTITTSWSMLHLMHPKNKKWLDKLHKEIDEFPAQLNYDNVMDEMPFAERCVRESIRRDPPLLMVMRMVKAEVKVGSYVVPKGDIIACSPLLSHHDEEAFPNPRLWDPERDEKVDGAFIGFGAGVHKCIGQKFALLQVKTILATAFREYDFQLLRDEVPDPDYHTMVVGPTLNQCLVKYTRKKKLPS

Structure (SMILES)	IC50 (Trypanosoma cruzi [1])	IC50 (Trypanosoma cruzi [2])	IC50 (Leishmania donovani [3])	IC50 (Leishmania donovani [4])	IC50 (Leishmania donovani [5])	IC50 (Leishmania donovani [6])	IC50 (Trypanosoma cruzi [7])	IC50 [8]	IC50 [9]	IC50 at 48 h [10]	IC50 [11]	IC50 (Trypanosoma cruzi [12])
Cc1noc(C)c1COc1cccc(C(=O)N=c2[nH]cccc2C)c1	2.51 µM	50.1 µM	10 µM	6.31 µM	> 50.1 µM	20 µM	> 50.1 µM	50.1 µM	0.398 µM	> 100 µM	0.794 µM	39.8 µM
Cc1nn(-c2nc3ccccc3s2)c2c1C(c1ccc(OCC(N)=O)cc1)SCC(=O)N2 (centres undefined)	> 50.1 µM	> 50.1 µM	> 50.1 µM	> 50.1 µM	> 50.1 µM	> 50.1 µM	5.01 µM	> 100 µM	0.02 µM	> 100 µM	0.0316 µM	> 50.1 µM
Cc1[nH]nc(C(F)(F)F)c1NC(=O)CCn1cc(Cl)c([N+](=O)[O-])n1	> 50.1 µM	25.1 µM	> 50.1 µM	15.8 µM	> 50.1 µM	> 50.1 µM	7.94 µM	> 100 µM	0.501 µM	> 100 µM	0.794 µM	6.31 µM
Cc1cc(C)n(-c2nc(NC(C)C)nc(NC(C)(C)C)n2)n1	0.2 µM	1.58 µM	3.98 µM	6.31 µM	3.16 µM	5.01 µM	2.24 µM	> 100 µM	20 µM	> 100 µM	12.6 µM	0.501 µM
O=C(NCc1ccc(Cl)cc1)C1CN(C(=O)c2ccc(F)cc2)CCS1 (centres undefined)	> 50.1 µM	39.8 µM	> 50.1 µM	> 50.1 µM	> 50.1 µM	> 50.1 µM	25.1 µM	12.6 µM	0.794 µM	> 100 µM	0.631 µM	31.6 µM
CCN(CC)c1ncc(C(=O)c2ccc([N+](=O)[O-])o2)s1	5.01 µM	12.6 µM	10 µM	6.31 µM	5.01 µM	10 µM	3.98 µM	39.8 µM	0.1 µM	15.8 µM	0.398 µM	7.94 µM
CCOc1ccc(NC(=O)c2ccc(NC(=O)NC3CCCCC3)cc2)cc1	> 50.1 µM	> 50.1 µM	6.31 µM	3.98 µM	> 50.1 µM	7.94 µM	31.6 µM	> 100 µM	0.2 µM	> 100 µM	0.501 µM	> 50.1 µM
COc1cccc2sc(CN(C)C(=O)C3CNCCN3c3ccc(F)cc3)c(C)c12 (centres undefined)	7.94 µM	0.2 µM	3.98 µM	12.6 µM	31.6 µM	6.31 µM	0.398 µM	0.251 µM	0.158 µM	12.6 µM	0.251 µM	0.158 µM
Cc1nc2c(-c3nc(-c4ccccc4N)n[nH]3)cccn2c1C	5.01 µM	2.51 µM	1 µM	7.94 µM	6.31 µM	1.58 µM	4.47 µM	3.16 µM	1 µM	15.8 µM	2.51 µM	1.58 µM
COc1ccc(-c2cc(C)no2)cc1S(=O)(=O)Nc1ccc(C)c(C)c1	15.8 µM	7.94 µM	2 µM	> 50.1 µM	7.94 µM	2.51 µM	5.01 µM	15.8 µM	20 µM	> 100 µM	20 µM	5.01 µM
Cc1nn2c(=O)c3c([nH]c2c1-c1ccc(Cl)cc1)CCCC3	> 50.1 µM	1 µM	> 50.1 µM	12.6 µM	1.26 µM	> 50.1 µM	0.398 µM	> 100 µM	0.158 µM	> 100 µM	0.316 µM	0.251 µM
O=C(c1ccccc1)N1CCC(C(=O)N2CCC(Oc3ccccc3Cl)CC2)CC1	> 50.1 µM	31.6 µM	31.6 µM	> 50.1 µM	> 50.1 µM	> 50.1 µM	2 µM	20 µM	0.501 µM	> 100 µM	1 µM	25.1 µM
CCn1c(-c2nonc2N)nc2c([C@@H](C)O)ncc(O[C@H](CN)c3ccccc3)c21	0.631 µM	10 µM	3.16 µM	3.16 µM	20 µM	5.01 µM	7.94 µM	25.1 µM	0.631 µM	79.4 µM	0.794 µM	7.94 µM
CN(C)c1ccc(N)cc1CN(CC1CCCO1)S(C)(=O)=O (centres undefined)	> 50.1 µM	> 50.1 µM	10 µM	> 50.1 µM	3.98 µM	12.6 µM	> 50.1 µM	> 100 µM	> 39.8 µM	> 100 µM	> 39.8 µM	> 50.1 µM
CCCc1cc(C(=O)Nc2ncc(-c3cccc(Br)c3)n2C)[nH]n1	> 50.1 µM	3.98 µM	3.98 µM	31.6 µM	6.31 µM	5.01 µM	2.51 µM	25.1 µM	2.51 µM	> 100 µM	1.26 µM	2.51 µM
Cc1cnc(Nc2cc(Cc3ccccc3)nc(N[C@H]3CC[C@H](O)CC3)n2)s1	0.0316 µM	0.126 µM	0.0316 µM	0.0251 µM	0.794 µM	0.0398 µM	0.126 µM	> 100 µM	0.0251 µM	25.1 µM	0.0398 µM	0.0501 µM
O=C(NCC(c1cccs1)N1CCOCC1)c1ccc([N+](=O)[O-])o1 (centres undefined)	5.01 µM	15.8 µM	15.8 µM	25.1 µM	31.6 µM	25.1 µM	3.16 µM	10 µM	0.316 µM	20 µM	0.316 µM	15.8 µM
